Measured values from EP3360866B1, “[…]” (Alfred E. Tiefenbacher (GmbH & Co. KG), priority 2017, dated 2018).

Assays:
[1] = esterase cleavage / half-life in human blood plasma; format: in vitro ADME; conditions: for prodrug cleaved (esterase cleavage): within 4 hours
Method: (§1) Almost 100 % esterase cleavage was found in rat blood plasma after 1 h, whereas about 70 % of the prodrug was cleaved within 4 hours in human blood plasma.
(§2) The half-life of Benzoyloxy(methoxy)carbonyl-Nphenethyl-Mirabegron in rat blood plasma and in human blood plasma was less than 0.5 h. Almost 100 % esterase cleavage was found in rat blood plasma after 1 h, whereas almost 100 % of the prodrug was cleaved within 4 hours in human blood plasma.

[2] = esterase cleavage / half-life in rat blood plasma; format: in vitro ADME; conditions: for esterase cleavage: after 1 h
Method: as §1, §2

[3] = oral administration to rats, pharmacokinetics compared with Mirabegron; format: in vivo; conditions: oral administration to Sprague Dawley rats, compared to the parent compound Mirabegron

Compound: Nc1nc(CC(=O)Nc2ccc(CCN(C[C@H](O)c3ccccc3)C(=O)OCOC(=O)c3ccccc3)cc2)cs1 [Benzoyloxy(methoxy)carbonyl-Nphenethyl-Mirabegron]
- half-life [1]: less than 0.5 h
- prodrug cleaved (esterase cleavage) [1]: ~100%
- half-life [2]: less than 0.5 h
- esterase cleavage [2]: ~100%

Compound: CC(OC(=O)C(C)C)OC(=O)N(CCc1ccc(NC(=O)Cc2csc(N)n2)cc1)C[C@H](O)c1ccccc1 (stereo partly shown) [Enacarbil-Nphenethyl-Mirabegron]
- half-life [1]: less than 2.5 h
- prodrug cleaved (esterase cleavage) [1]: about 70%
- Cmax [3]: higher
- Tmax [3]: earlier
- half-life [2]: less than 0.5 h
- esterase cleavage [2]: ~100%
